Like-named read-outs stand apart in the source and are kept apart here.

The record followed here is patent publication US8735620B2, “Processes for preparing (E)-styrylbenzylsulfone compounds and uses thereof for treating proliferative disorders” (priority 2008, dated 2014).

Common to all, as to type: cell-based
Data set [1] has as its system DU145 (human prostate tumor cell line). The data set can be described thus: Cytotoxicity assay (trypan blue exclusion, 96 h), DU145. The settings on record: DU145, 96 h treatment; read-out: DU145 IC50.
Data set [2] relates to H157 (human lung tumor cell line). The experiment in a line: Cytotoxicity assay (trypan blue exclusion, 96 h), H157. The settings on record: H157, 96 h treatment; read-out: H157 IC50.
Description: (§1) Tissue Culture and Reagents: Paclitaxel was purchased from Sigma. Cell lines were purchased from ATCC. Cell lines were routinely grown in DMEM or RPM1 (CellGro) supplemented with 10% fetal bovine serum (Atlas) and 1 unit/mL penicillin-streptomycin (Gibco).
Data set [3] deals with DLD1 (human colorectal tumor cell line). The experiment in a line: Cytotoxicity assay (trypan blue exclusion, 96 h), DLD1. Conditions: DLD1, 96 h treatment; read-out: DLD1 IC50.
Description: as §1
Data set [4] has as its system BT20 (human breast tumor cell line). The data set can be described thus: Cytotoxicity assay (trypan blue exclusion, 96 h), BT20. The settings on record: BT20, 96 h treatment.
Description: as §1
The test system of data set [5] is BT20, DU145, H157 and DLD1 cell lines. The data set can be described thus: In vitro cytotoxicity, four human tumor cell lines (SAR discussion). The protocol: A number of tumor cell lines were tested using a dose response end point assay system. The cells were grown in either DMEM or RPMI supplemented with 10% fetal bovine serum and 1 unit/mL Penicillin-Streptomycin solution. The tumor cells were plated into 6 well dishes at a cell density of 1.0×10^5 cells/mL/well and compounds were added 24 h later at various concentrations. Cell counts were determined from duplicate wells after 96 h of treatment. The total number of viable cells was determined by trypan blue exclusion.
Following the synthesis of this group of compounds, their in vitro cytotoxicity was assessed using four different human tumor cell lines derived from human breast (BT20), prostate (DU145), lung (H157) and colorectal (DLD1) cancers. […] In a majority of the compounds described here, a methoxy group was kept constant at the 4th position on the aromatic ring of the benzyl moiety.

For `COc1cc(OC)c(/C=C/S(=O)(=O)Cc2ccc(OC)c(OC)c2OC)c(OC)c1` [6ad, (E)-2,4,6-Trimethoxystyryl-2,3,4-Trimethoxybenzyl sulfone], in data set [1], the IC50 amounted to 12.5 µM.

As for `COc1ccc(CS(=O)(=O)/C=C/c2cc(OC)c(OC)cc2OC)cc1` [6q, (E)-2,4,5-Trimethoxystyryl-4-Methoxybenzyl sulfone], the IC50 in data set [2], in data set [3], in data set [1] and in data set [4] was above 20 µM throughout. Moreover, the “activity in cell-killing assays” value in data set [5] (at the highest concentration (20 μM) tested) was “totally inactive”.

In the case of `COc1ccc(CS(=O)(=O)/C=C/c2c(C)cc(C)cc2C)cc1` [6w, (E)-2,4,6-Trimethylstyryl-4-Methoxybenzyl sulfone], the IC50 in data set [2], in data set [3], in data set [1] and in data set [4] was above 20 µM each time. The “cytotoxic activity, SAR statement” value in data set [5] is “inactive”.

With `COc1cc(OC)c(/C=C/S(=O)(=O)Cc2ccc([N+](=O)[O-])cc2)c(OC)c1` [6af, (E)-2,4,6-trimethoxystyryl-4-Nitrobenzyl sulfone], the “cytotoxic activity, SAR statement” value in data set [5] (four human tumor cell lines) is “substantially lost activity”.

Take `COc1ccc(CS(=O)(=O)/C=C/c2c(OC)cc(O)cc2OC)cc1O` [6z, (E)-2,6-Dimethoxy-4-hydroxystyryl-3-Hydroxy-4-Methoxybenzyl Sulfone]: the IC50 was determined as 0.5 µM in data set [2], 0.5 µM in data set [3], 0.5 µM in data set [1] and 0.25 µM in data set [4].

Consider `COc1ccc(CS(=O)(=O)/C=C/c2ccc([N+](=O)[O-])cc2)cc1` [6d, (E)-4-Nitrostyryl-4-Methoxybenzyl sulfone], for which the half-inhibitory concentration (IC50) in data set [2] stood at 7.5 µM; in data set [3], 5 µM; in data set [1], 7.5 µM; in data set [4], 5 µM. The “cytotoxic activity, SAR statement” value in data set [5] (four human tumor cell lines) was “gradually decreased the activity”.

As for `COc1ccc(CS(=O)(=O)/C=C/c2ccc(F)cc2Cl)cc1` [6g, (E)-2-Chloro-4-fluorostyryl-4-Methoxybenzyl sulfone], the IC50 in data set [2] was 2.5 µM; in data set [3], 4 µM; in data set [1] it was 2 µM; in data set [4], 2.5 µM. Moreover, the “cytotoxic activity, SAR statement” value in data set [5] is “retained cytotoxic activity”.

As for `COc1cc(OC)c(/C=C/S(=O)(=O)Cc2ccc(Cl)cc2)c(OC)c1` [6ae, (E)-2,4,6-trimethoxystyryl-4-chlorobenzyl sulfone], the IC50 in data set [1] came out at 7.5 µM; in data set [4], 10 µM. Further, the “cytotoxic activity, SAR statement” value in data set [5] is on record as “substantially lost activity”.

`COc1ccc(CS(=O)(=O)/C=C/c2cc(OC)c(OC)c(OC)c2)cc1O` [6y, (E)-3,4,5-Trimethoxystyryl-3-Hydroxy-4-Methoxybenzyl Sulfone]: the IC50 in data set [2] worked out at 10 µM; in data set [3], 10 µM; in data set [1], 5 µM; in data set [4], 7.5 µM.

Turning to `COc1ccc(CS(=O)(=O)/C=C/c2c(OC)cccc2OC)cc1` [6m, (E)-2,6-Dimethoxystyryl-4-Methoxybenzyl sulfone], the IC50 was 0.7 µM in data set [2], 0.7 µM in data set [3], 0.25 µM in data set [1] and 0.4 µM in data set [4]. For the same compound, in data set [5] (cytotoxicity assays), the “fold enhancement of activity compared to other disubstituted methoxy sulfones (6j, 6n, 6o and 6p)” value is reported as “greater than 40 fold”.

With `COc1ccc(CS(=O)(=O)/C=C/c2c(OC)cc(F)cc2OC)cc1` [6v, (E)-2,6-Dimethoxy-4-fluorostyryl-4-Methoxybenzyl sulfone], the IC50 turned out to be 0.5 µM in data set [2], 0.75 µM in data set [3], 0.5 µM in data set [1] and 0.75 µM in data set [4]. Besides, the “cytotoxic activity, SAR statement” value in data set [5] is “either a reduced level or total loss of activity”.

As to `COc1cc(OC)c(/C=C/S(=O)(=O)Cc2cc(OC)c(OC)c(OC)c2)c(OC)c1` [6ac, (E)-2,4,6-trimethoxystyryl-3,4,5-Trimethoxybenzyl sulfone], the IC50 in data set [2], in data set [3], in data set [1] and in data set [4] was above 20 µM throughout.

For the compound `COc1cc(OC)c(/C=C/S(=O)(=O)Cc2ccc(C(=O)O)cc2)c(OC)c1` [6ah, (E)-2,4,6-trimethoxystyryl-4-Carboxybenzyl sulfone], the IC50 amounted to 17.5 µM in data set [2] and 10 µM in data set [1]. Also, the “cytotoxic activity, SAR statement” value in data set [5] (four human tumor cell lines) is listed as “substantially lost activity”.

In the case of `COc1ccc(CS(=O)(=O)/C=C/c2ccc(C)cc2C)cc1` [6h, (E)-2,4-Dimethylstyryl-4-Methoxybenzyl sulfone], in data set [1], the concentration for half-maximal inhibition (IC50) was 12 µM. Moreover, in data set [5], the “cytotoxic activity, SAR statement” value was “low level of cytotoxicity”.

Consider `COc1ccc(/C=C/S(=O)(=O)Cc2ccc(OC)cc2)cc1` [6a, (E)-4-Methoxystyryl-4-Methoxybenzyl sulfone], for which the IC50 in data set [2], in data set [3], in data set [1] and in data set [4] was above 20 µM each time. Moreover, the “cytotoxic activity, SAR statement” value in data set [5] is “gradually decreased the activity”.

Consider `COc1cc(OC)c(/C=C/S(=O)(=O)Cc2ccc(OC(F)(F)F)cc2)c(OC)c1` [6x, (E)-2,4,6-Trimethoxystyryl-4-Trifluoromethoxybenzyl sulfone], for which the IC50 came out at 6 µM in data set [2], 4 µM in data set [3], 4 µM in data set [1] and 3 µM in data set [4].

Take `COc1ccc(CS(=O)(=O)/C=C/c2ccc(F)c(OC)c2)cc1` [6i, (E)-4-Fluoro-3-methoxystyryl-4-Methoxybenzylsulfone]: the IC50 in data set [1] came to 10 µM. The “cytotoxic activity, SAR statement” value in data set [5] (four human tumor cell lines) is listed as “loss of activity”.

Turning to `COc1cc(OC)c(/C=C/S(=O)(=O)Cc2ccc(O)cc2)c(OC)c1` [6ai, (E)-2,4,6-trimethoxystyryl-4-Hydroxybenzyl sulfone], in data set [1], the IC50 turned out to be 7.5 µM. For the same compound, in data set [5] (four human tumor cell lines), the “cytotoxic activity, SAR statement” value is listed as “substantially lost activity”.

With `COc1ccc(CS(=O)(=O)/C=C/c2ccc(OC)c(OC)c2)cc1` [6j, (E)-3,4-Dimethoxystyryl-4-Methoxybenzyl sulfone], the IC50 in data set [2], in data set [3], in data set [1] and in data set [4] was above 20 µM each time.

For `COc1ccc(CS(=O)(=O)/C=C/c2ccc(OC)cc2OC)cc1` [6n, (E)-2,4-Dimethoxystyryl-4-Methoxybenzyl sulfone], the IC50 in data set [2], in data set [3], in data set [1] and in data set [4] was above 20 µM each time.

With `COc1ccc(CS(=O)(=O)/C=C/c2cc(OC)ccc2OC)cc1` [6o, (E)-2,5-Dimethoxystyryl-4-Methoxybenzyl sulfone], the IC50 in data set [2], in data set [3], in data set [1] and in data set [4] was above 20 µM in each case.

Take `COc1cc(OC)c(/C=C/S(=O)(=O)Cc2ccc(C#N)cc2)c(OC)c1` [6ag, (E)-2,4,6-trimethoxystyryl-4-Cyanobenzyl sulfone]: the IC50 in data set [1] was determined as 7.5 µM; in data set [4], 12.5 µM. The “cytotoxic activity, SAR statement” value in data set [5] is reported as “substantially lost activity”.

Consider `COc1ccc(CS(=O)(=O)/C=C/c2cc(OC)cc(OC)c2)cc1` [6p, (E)-3,5-Dimethoxystyryl-4-Methoxybenzyl sulfone], for which the half-inhibitory concentration (IC50) in data set [2], in data set [3], in data set [1] and in data set [4] was above 20 µM each time.
